Source: publication PMC11582173, “Synthesis, cytotoxicity, anti-inflammatory, anti-metastatic and anti-oxidant activities of novel chalcones incorporating 2-phenoxy-N-arylacetamide and thiophene moieties: induction of apoptosis in MCF7 and HEP2 cells” (Naunyn-Schmiedeberg's Archives of Pharmacology, 2024)
In brackets after ≈: the same amount, converted by molar mass.

Columns and labels:
[1] = test system: human Lung carcinoma (A549) cells; test: SRB cytotoxic assay, A549; type: cell-based; settings: single dose 100 µg/mL, 48 h, read-out: %Inhibition at100 µg/mL A549
Experimental: (§1) All the prepared compounds were screened at a concentration of 100 µg/mL against six different human cell lines: human laryngeal carcinoma (HEP2), human colorectal carcinoma (HCT116), human breast carcinoma (MCF7), human Lung carcinoma (A549), human liver carcinoma (HEPG2), and normal African Green monkey kidney cell line (VERO). Doxorubicin was used as a positive control for comparison purposes.
(§2) The human laryngeal carcinoma (HEP2), colorectal carcinoma (HCT116), breast carcinoma (MCF7), Lung carcinoma (A549), liver carcinoma (HEPG2), and normal African Green monkey kidney cell line (VERO) were purchased from American Tissue Culture Collection (Rockville, MD, USA). The cells were treated for 48 h with a single dose (100 µg/mL) of all the tested chalcones. […] In brief, the cells were seeded in a 96-well microtiter plate at a concentration of 5×10^3 cells/well in 100 µL fresh RPMI-1640 medium and left to attach to the plates for 24 h. Then, cells were incubated with 100 μL of different concentrations (50, 25, 12.5, 6.25, and 0.0 µg/mL) of 5c in triplicate at 37 °C for 48 h. After that, the cells were fixed with 10 µL cold 100% Trichloroacetic acid (TCA) for 1h at 4 °C. The wells were then washed 1 time with distilled water using (automatic Tecan washer, Germany) and stained for 30 min at room temperature with 50 µL 0.4% SRB dissolved in 1% acetic acid. The plates were air-dried and the dye was solubilized with 100 µl/well of 1M tris base (pH 10.5) for 5 min. The optical density (O.D.) of each well was measured spectrophotometrically at 570 nm with an ELISA microplate reader (Sunrise Tecan reader, Germany) with automatic shaking for 30 seconds before reading. The mean background absorbance was subtracted automatically and mean values for each drug concentration were calculated. The percentage of cell survival was calculated as follows: Survival fraction= O.D. (treated cells)/ O.D. (control cells) (Bhat et al. [2023]).

[2] = test system: normal African Green monkey kidney cell line (VERO); test: SRB cytotoxic assay, VERO normal cells; type: cell-based; settings: Chlorocebus sabaeus, single dose 100 µg/mL, 48 h, read-out: %Inhibition at100 µg/mL VERO
Experimental: as §1, §2

[3] = test system: human liver carcinoma (HEPG2) cells; test: SRB cytotoxic assay, HEPG2; type: cell-based; settings: single dose 100 µg/mL, 48 h, read-out: %Inhibition at100 µg/mL HEPG2
Experimental: as §1, §2

[4] = test system: human laryngeal carcinoma (HEP2) cells; test: SRB cytotoxic assay, HEP2; type: cell-based; settings: HEp-2, 48 h; for inhibition at 100 µg/mL: single dose 100 µg/mL, read-out: %Inhibition at100 µg/mL HEP2
Experimental: as §1, §2

[5] = test system: human breast carcinoma (MCF7) cells; test: SRB cytotoxic assay, MCF7; type: cell-based; settings: MCF7, 48 h; for inhibition at 100 µg/mL: single dose 100 µg/mL, read-out: %Inhibition at100 µg/mL MCF7
Experimental: as §1, §2

[6] = test system: human colorectal carcinoma (HCT116) cells; test: SRB cytotoxic assay, HCT116; type: cell-based; settings: HCT-116, single dose 100 µg/mL, 48 h, read-out: %Inhibition at100 µg/mL HCT116
Experimental: as §1, §2

MCF7 = test system: MCF7; set-up: method as in Khairul et al. [2020]; settings: reported chalcone derivatives; ref Khairul et al. [2020]; cited from earlier work

`O=C(COc1ccc(C(=O)C=Cc2cccs2)cc1)Nc1ccc(Cl)cc1` [Compound 9d, N-(4-Chlorophenyl)-2-(4-(3-(thiophen-2-yl)acryloyl)phenoxy)acetamide] showed an inhibition at 100 µg/mL [1] of under 10%, an inhibition at 100 µg/mL [2] of 10 ± 1% and an inhibition at 100 µg/mL [3] of under 10%. It also gave an inhibition at 100 µg/mL [4] of 17.9 ± 2.3%, a melting point of 193 to 195 °C and an inhibition at 100 µg/mL [5] of 2.28 ± 4.1%. For the same compound, the inhibition at 100 µg/mL [6] was 6.66 ± 3.3%.
For `CCCCCCOc1ccc(/C=C/C(=O)c2ccc([N+](=O)[O-])cc2)cc1` [(E)-1-(4-nitrophenyl)-3-(4-(hexyloxy)phenyl) prop-2-en-1-one], the “IC50 cytotoxic effect against MCF7” value (MCF7) is given as 14.75 µg/mL (≈ 41.7 µM).
`Cc1ccc(NC(=O)COc2ccc(C(=O)C=Cc3cccs3)cc2)cc1` [Compound 9b, 2-(4-(3-(Thiophen-2-yl)acryloyl)phenoxy)-N-(p-tolyl)acetamide] showed an inhibition at 100 µg/mL [1] of 33 ± 3.1%, an inhibition at 100 µg/mL [2] of 15 ± 2.4% and an inhibition at 100 µg/mL [3] of 26 ± 1.7%. For the same compound, the inhibition at 100 µg/mL [4] was 17.9 ± 1.3%, the melting point was 200 to 202 °C and the inhibition at 100 µg/mL [5] was 18.6 ± 0.05%. The inhibition at 100 µg/mL [6] was 0.92 ± 1.7%.
`COc1cccc2c1C(=O)c1c(O)c3c(c(O)c1C2=O)C[C@@](O)(C(=O)CO)C[C@@H]3O[C@H]1C[C@H](N)[C@H](O)[C@H](C)O1` [Doxorubicin, reference compound] gave an inhibition at 100 µg/mL [1] of 77 ± 1.5%, an inhibition at 100 µg/mL [2] of 45 ± 2% and an inhibition at 100 µg/mL [3] of 81 ± 2%. It also gave an IC50 [4] of 11 µg/mL (≈ 20.2 µM), an inhibition at 100 µg/mL [4] of 83.2 ± 1.1% and an IC50 [5] of 5.5 µg/mL (≈ 10.1 µM). For the same compound, the inhibition at 100 µg/mL [5] was 86.6 ± 1.6% and the inhibition at 100 µg/mL [6] was 71.5 ± 0.9%.
With `O=C(COc1ccc(C=CC(=O)c2cccs2)cc1)Nc1ccccc1` [Compound 5a, 2-(4-(3-Oxo-3-(thiophen-2-yl)prop-1-en-1-yl)phenoxy)-N-phenylacetamide] the inhibition at 100 µg/mL [1] was 22 ± 1.4%, the inhibition at 100 µg/mL [2] was 55 ± 3% and the inhibition at 100 µg/mL [3] was 30 ± 1.2%. The inhibition at 100 µg/mL [4] was 4.53 ± 0.08%, the melting point was 194 to 196 °C and the inhibition at 100 µg/mL [5] was 33.7 ± 1.5%. The inhibition at 100 µg/mL [6] was 5.18 ± 1.6%.
For `CCCCCCOc1ccc(/C=C/C(=O)c2ccc(C#N)cc2)cc1` [(E)-1-(4-cyanophenyl)-3-(4-(hexyloxy)phenyl) prop-2-en-1-one], the “IC50 cytotoxic effect against MCF7” value (MCF7) is given as 13.75 µg/mL (≈ 41.2 µM).
For `O=C(COc1ccc(C(=O)C=Cc2cccs2)cc1)Nc1ccccc1` [Compound 9a, N-Phenyl-2-(4-(3-(thiophen-2-yl)acryloyl)phenoxy)acetamide], the inhibition at 100 µg/mL [1] was 52 ± 2.7%, the inhibition at 100 µg/mL [2] was 58 ± 1.4% and the inhibition at 100 µg/mL [3] was 64 ± 1.5%. For the same compound, the IC50 [4] was 15.5 µg/mL (≈ 42.6 µM), the inhibition at 100 µg/mL [4] was over 75% and the IC50 [5] was 24.5 µg/mL (≈ 67.4 µM). The inhibition at 100 µg/mL [5] was over 75% and the inhibition at 100 µg/mL [6] was 44.7 ± 1%.
With `Cc1ccc(NC(=O)COc2ccc(C=CC(=O)c3cccs3)cc2)cc1` [Compound 5b, 2-(4-(3-Oxo-3-(thiophen-2-yl)prop-1-en-1-yl)phenoxy)-N-(p-tolyl)acetamide] the inhibition at 100 µg/mL [1] was 10.2 ± 2%, the inhibition at 100 µg/mL [2] was 60 ± 1% and the inhibition at 100 µg/mL [3] was 25 ± 1.9%. It also gave an inhibition at 100 µg/mL [4] of 7.2 ± 1.4%, a melting point of 202 to 204 °C and an inhibition at 100 µg/mL [5] of 0.52 ± 2.1%. For the same compound, the inhibition at 100 µg/mL [6] was 5.92 ± 1.2%.
Compound `COc1ccc(NC(=O)COc2ccc(C(=O)C=Cc3cccs3)cc2)cc1` [Compound 9c, N-(4-Methoxyphenyl)-2-(4-(3-(thiophen-2-yl)acryloyl)phenoxy)acetamide] has an inhibition at 100 µg/mL [1] of under 10%, an inhibition at 100 µg/mL [2] of under 10% and an inhibition at 100 µg/mL [3] of under 10%. It also gave an inhibition at 100 µg/mL [4] of 7.2 ± 1.7%, a melting point of 205 to 207 °C and an inhibition at 100 µg/mL [5] of 1.81 ± 1.3%. It also gave an inhibition at 100 µg/mL [6] of 16.3 ± 1.9%.
Compound `O=C(COc1ccc(C=CC(=O)c2cccs2)cc1)Nc1ccc(Cl)cc1` [Compound 5d, N-(4-Chlorophenyl)-2-(4-(3-oxo-3-(thiophen-2-yl)prop-1-en-1-yl)phenoxy)acetamide] has an inhibition at 100 µg/mL [1] of 44.1 ± 1.3%, an inhibition at 100 µg/mL [2] of 80 ± 2% and an inhibition at 100 µg/mL [3] of 45.2 ± 1.7%. The inhibition at 100 µg/mL [4] was 0.36 ± 0.05%, the melting point was 198 to 200 °C and the inhibition at 100 µg/mL [5] was 40.09 ± 0.07%. For the same compound, the inhibition at 100 µg/mL [6] was 0.85 ± 1.1%.
